What all share (type): biochemical
One experiment addresses T1, ALDH2*1/*1 (Homo sapiens, UniProt P05091).
T1 construct: His-tag (N); made in house; host or cells: E. coli BL21 (pTrcHis vector)
T1 sequence (P05091 18-517): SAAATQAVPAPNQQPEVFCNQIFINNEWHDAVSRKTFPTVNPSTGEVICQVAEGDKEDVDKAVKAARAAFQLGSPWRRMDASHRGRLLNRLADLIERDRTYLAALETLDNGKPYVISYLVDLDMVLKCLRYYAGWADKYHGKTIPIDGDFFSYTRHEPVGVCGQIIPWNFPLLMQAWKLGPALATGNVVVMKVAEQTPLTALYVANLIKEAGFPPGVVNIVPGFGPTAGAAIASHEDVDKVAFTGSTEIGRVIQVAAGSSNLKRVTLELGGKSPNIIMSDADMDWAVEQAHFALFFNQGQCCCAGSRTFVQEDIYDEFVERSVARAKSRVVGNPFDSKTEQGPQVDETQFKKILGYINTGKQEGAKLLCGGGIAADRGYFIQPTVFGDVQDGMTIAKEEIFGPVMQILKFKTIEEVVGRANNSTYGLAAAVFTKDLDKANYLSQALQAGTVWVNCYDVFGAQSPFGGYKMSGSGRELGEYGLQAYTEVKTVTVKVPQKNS
In words: ALDH2 enzymatic activity, NADH accumulation at 340 nm, acetaldehyde substrate, wild type. The settings on record: relative to baseline enzymatic activity (100%); for activity at 2.5 µM: 2.5 μM compound; for activity at 5 µM: 5 μM compound; for activity at 10 µM: 10 μM compound; for activity at 20 µM: 20 μM compound. On the procedure:
(§1) ALDH2 catalyzes the oxidative reaction of substrate acetaldehyde to acetic acid using NAD^+ as a cofactor. Enzymatic activity, or catalytic rate, of aldehyde dehydrogenase (ALDH2) are measured spectrophotometrically at UV wavelength λ340 nm by the accumulation of reduced product NADH derived from NAD^+. Absorbance at λ340 nm is quantitatively proportional to the amount of NADH being produced over time (6.22 O.D. unit=1 mmol of NADH, measured in a 1-cm width standard cuvette). This method is well-established in the literature [e.g. Rex et al., Alcohol Clin. Exp. Res. 9, 147 (1985)].
(§2) ALDH2 catalyzes the oxidative reaction of substrate acetaldehyde to acetic acid using NAD^+ as a cofactor. Enzymatic activity, or catalytic rate, of aldehyde dehydrogenase (ALDH2) can be measured spectrophotometrically at UV wavelength λ340 nm by the accumulation of reduced product NADH derived from NAD^+. Absorbance at λ340 nm is quantitatively proportional to the amount of NADH being produced over time (6.22 O.D. unit=1 mmol of NADH, measured in a 1-cm width standard cuvette). This method is well-established in the literature [e.g. Rex et al., Alcohol Clin. Exp. Res. 9, 147 (1985)].
(§3) Cloning, expression and purification of human ALDH2 wild type and ALDH2*2 recombinant mutant enzymes: Full-length wild type human ALDH2 cDNA was purchased from ATCC (No. MGC-1806. GenBank ID: BC002967). The 18-amino acid mitochondria transport signal sequence was removed by PCR and cloned into the NheI/HindIII sites of a His-tag vector, pTrcHis, using standard molecular cloning techniques. The human ALDH2* cDNA construct containing the Asian E487K mutation was obtained by site-directed mutagenesis to create the E487K substitution of the wild type ALDH2. Both human clones were designed to express a recombinant protein with the His-tag at the N-terminus of the protein. For the co-expression experiments of human ALDH2 wild type and ALDH2*2 heterotetramers, a wild type ALDH2 gene and a ALDH2 E487K gene were inserted separately into the two multiple cloning sites of pETDuet-1 vector. (Novagen, CA, USA). All the vectors were transformed into BL21 E. coli host cells and subjected to 0.5 mM IPTG induction for protein expression at 30° C. Purifications of the recombinant proteins by affinity nickel columns (HisTrap, GE Healthy Science, USA) were carried out using standard protocols according to manufacturer's instructions (Novagen, USA).
(§4) ALDH2 catalyzes the oxidative reaction of substrate acetaldehyde to acetic acid using NAD^+ as a cofactor. Enzymatic activity, or catalytic rate, of aldehyde dehydrogenase (ALDH2) can be measured spectrophotometrically at UV wavelength λ340 nm by the accumulation of reduced product NADH derived from NAD^+. Because compounds of formula (I) are considered to be agonists or “activators” of ALDH2 the enzymatic activity measured will exceed 100% of the baseline enzymatic activity of the enzyme in its normal activation state. As the concentration of the compounds of formula (I) decreases from 20 micromolar to 0.16 micromolar in the presence of ALDH, a decrease in the activation of enzymatic activity is observed for the wild-type ALDH2*1/*1 and the heterozygous form ALDH2*1/*2.

Another experiment deals with T2, ALDH2*1/*2 (Homo sapiens, UniProt P05091, E504K).
T2 construct: His-tag; made in house; host or cells: E. coli BL21 (pETDuet-1 co-expression)
T2 sequence (P05091 18-517): T1 sequence (P05091 18-517)
T2 sequence (P05091 18-517 E504K): T1 sequence (P05091 18-517) with E487K
Description: ALDH2 enzymatic activity, NADH accumulation at 340 nm, acetaldehyde substrate, heterozygous form. The settings on record: relative to baseline enzymatic activity (100%); for activity at 2.5 µM: 2.5 μM compound; for activity at 5 µM: 5 μM compound; for activity at 10 µM: 10 μM compound; for activity at 20 µM: 20 μM compound. On the procedure: as §1, §2, §3, §4

Another experiment addresses T3, ALDH2 (Homo sapiens, UniProt P05091).
T3 construct: His-tag (N); made in house; host or cells: E. coli BL21
T3 sequence (P05091 18-517): T1 sequence (P05091 18-517)
In words: ALDH2 activity with 20 μM of the compound (Table 3). The settings on record: 20 μM compound. On the procedure: as §1, §2, §4

Where a chain is given by its changes, count along the chain named.

Take `COc1ccc(CNC(=O)c2cc(-c3ccccc3CO)cnc2OCC2CC2)cc1F` [AC1, 2-(cyclopropylmethoxy)-N-(3-fluoro-4-methoxybenzyl)-5-(2-(hydroxymethyl)phenyl)nicotinamide]: at ALDH2*1/*1, the activity at 2.5 µM was 175%, the activity at 5 µM turned out to be 242%, the activity at 10 µM was determined as 288% and the activity at 20 µM was determined as 412%. Besides, on ALDH2*1/*2, the activity at 2.5 µM came out at 220%, the activity at 5 µM turned out to be 294%, the activity at 10 µM amounted to 383% and the activity at 20 µM was 453%. In addition, the activity at 20 µM on ALDH2 is > 250%.

Turning to `COc1ccc(CNC(=O)c2cc(-c3ccccc3CO)ccc2OCC2CC2)cc1F` [AC2, 4-(cyclopropylmethoxy)-N-(3-fluoro-4-methoxybenzyl)-2′-(hydroxymethyl)-[1,1′-biphenyl]-3-carboxamide], on ALDH2*1/*1, the activity at 2.5 µM was 215%, the activity at 5 µM stood at 275%, the activity at 10 µM amounted to 328% and the activity at 20 µM turned out to be 443%. Besides, at ALDH2*1/*2, the activity at 2.5 µM stood at 256%, the activity at 5 µM was determined as 338%, the activity at 10 µM stood at 408% and the activity at 20 µM was 471%. For the same compound, on ALDH2, the activity at 20 µM was > 250%.

For the compound `COc1ccc(CNC(=O)c2cc(-c3ccccc3CO)ncc2OCC2CC2)cc1F` [AC3], on ALDH2*1/*1, the activity at 2.5 µM worked out at 150%, the activity at 5 µM came to 195%, the activity at 10 µM stood at 220% and the activity at 20 µM is 319%. Besides, on ALDH2*1/*2, the activity at 2.5 µM worked out at 180%, the activity at 5 µM worked out at 245%, the activity at 10 µM worked out at 310% and the activity at 20 µM came out at 376%. For the same compound, the activity at 20 µM at ALDH2 lay within 150 to 250%.

As to `COc1ccc(CNC(=O)c2cc(-c3ccc(F)cc3CO)cnc2OCC2CC2)cc1F` [AC4], on ALDH2*1/*1, the activity at 2.5 µM came out at 204%, the activity at 5 µM worked out at 280%, the activity at 10 µM stood at 300% and the activity at 20 µM was found to be 363%. Moreover, at ALDH2*1/*2, the activity at 2.5 µM was 266%, the activity at 5 µM was determined as 338%, the activity at 10 µM was determined as 390% and the activity at 20 µM amounted to 423%. Moreover, the activity at 20 µM at ALDH2 was > 250%.

Consider `COc1ccc(CNC(=O)c2cc(-c3cnccc3CO)ccc2OCC2CC2)cc1F` [AC5], for which, on ALDH2*1/*1, the activity at 2.5 µM came out at 266%, the activity at 5 µM is 330%, the activity at 10 µM was determined as 352% and the activity at 20 µM is 487%. In addition, on ALDH2*1/*2, the activity at 2.5 µM was determined as 318%, the activity at 5 µM stood at 382%, the activity at 10 µM is 428% and the activity at 20 µM turned out to be 504%. Further, the activity at 20 µM at ALDH2 is > 250%.

As to `COc1ccc(CNC(=O)c2cc(-c3cccnc3CO)ccc2OCC2CC2)cc1F` [AC7], at ALDH2*1/*1, the activity at 2.5 µM amounted to 133%, the activity at 5 µM is 181%, the activity at 10 µM came out at 266% and the activity at 20 µM came to 331%. Besides, on ALDH2*1/*2, the activity at 2.5 µM worked out at 176%, the activity at 5 µM turned out to be 244%, the activity at 10 µM amounted to 291% and the activity at 20 µM is 434%. In addition, the activity at 20 µM at ALDH2 is > 250%.

As to `COc1ccc(CNC(=O)c2cc(-c3ncccc3CO)cnc2OCC2CC2)cc1F` [AC8], on ALDH2*1/*1, the activity at 2.5 µM was 164%, the activity at 5 µM came out at 223%, the activity at 10 µM is 319% and the activity at 20 µM was found to be 370%. Besides, on ALDH2*1/*2, the activity at 2.5 µM came to 221%, the activity at 5 µM was 299%, the activity at 10 µM was found to be 328% and the activity at 20 µM stood at 479%. Besides, the activity at 20 µM on ALDH2 was > 250%.

`COc1ccc(CNC(=O)c2cc(-c3ccncc3CO)ccc2OCC2CC2)cc1F` [AC9]: at ALDH2*1/*1, the activity at 2.5 µM amounted to 218%, the activity at 5 µM was 276%, the activity at 10 µM is 354% and the activity at 20 µM was found to be 376%. On ALDH2*1/*2, the activity at 2.5 µM was 224%, the activity at 5 µM was determined as 287%, the activity at 10 µM is 317% and the activity at 20 µM amounted to 402%. On ALDH2, the activity at 20 µM was > 250%.

With `COc1ccc(CNC(=O)c2cc(-c3cnccc3CO)cnc2OCC2CC2)cc1F` [AC10], on ALDH2*1/*1, the activity at 2.5 µM came out at 172%, the activity at 5 µM was 238%, the activity at 10 µM came out at 346% and the activity at 20 µM was 414%. Besides, on ALDH2*1/*2, the activity at 2.5 µM worked out at 239%, the activity at 5 µM amounted to 321%, the activity at 10 µM amounted to 388% and the activity at 20 µM stood at 531%. Moreover, the activity at 20 µM on ALDH2 is > 250%.

Consider `COc1ccc(CNC(=O)c2cc(-c3cccnc3CO)cnc2OCC2CC2)cc1F` [AC11], for which, on ALDH2*1/*1, the activity at 2.5 µM came to 123%, the activity at 5 µM amounted to 135%, the activity at 10 µM was 169% and the activity at 20 µM worked out at 211%. Besides, at ALDH2*1/*2, the activity at 2.5 µM was 125%, the activity at 5 µM is 158%, the activity at 10 µM was determined as 185% and the activity at 20 µM was found to be 248%. Further, the activity at 20 µM on ALDH2 lay in the range of 150 to 250%.

Turning to `[2H]C(O)c1cccnc1-c1ccc(OCC2CC2)c(C(=O)NCc2ccc(OC([2H])([2H])[2H])c(F)c2)c1` (stereo not drawn) [AC157], the activity at 20 µM on ALDH2 is > 250%.

For the compound `[2H]C([2H])([2H])Oc1ccc(CNC(=O)c2cc(-c3ncccc3CO)ccc2OC([2H])([2H])C2CC2)cc1F` [AC159], at ALDH2, the activity at 20 µM was > 250%.

Consider `COc1ccc(CNC(=O)c2cc(-c3ncccc3CO)ccc2OCC2CCCCC2)cc1F` [AC163], for which the activity at 20 µM on ALDH2 is 150 to 250%.

Consider `COc1ccc(CNC(=O)c2cc(-c3ncccc3CO)ccc2OC2CCCCCC2)cc1F` [AC164], for which, at ALDH2, the activity at 20 µM is > 250%.

In the case of `COc1ccc(CNC(=O)c2cc(-c3ncccc3CO)ccc2OC2CCCCCCC2)cc1F` [AC165], the activity at 20 µM at ALDH2 was in the range of 150 to 250%.

In the case of `COc1ccc(CNC(=O)c2cc(-c3ncccc3CO)ccc2OCC2CCCC2)cc1F` [AC166], the activity at 20 µM at ALDH2 was > 250%.

Values taken from US9879036B2, “Mitochondrial aldehyde dehydrogenase-2 binding compounds and methods of use thereof” (Aviv Therapeutics, Inc., priority 2014, dated 2018).
